From patent US20250215012A1, “IKZF2 DEGRADERS AND USES THEREOF” (REGENTS OF THE UNIVERSITY OF MICHIGAN, priority 2022, published 2025)
Where two headings read alike, the source gives them in different places.

Experiments:
[1] = biological target: IKZF1 (Homo sapiens (Human), UniProt Q13422+Q96SW2); assay: IKZF1 HiBit Assay (HEK293T Flp-in-HiBiT-IKZF1 stable cell line); format: cell-based; details: for DC50: read-out: IKZF1 HiBit degradation DC50; for Dmax: HEK-293T, read-out: IKZF1 HiBit degradation Dmax
Outline: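 HEK293T Flp-in cells with CRISPR-inserted N-terminal HiBiT tag treated 6 h with 11-point threefold dilutions (0.1% DMSO). Nano-Glo HiBiT lytic luminescence normalised to DMSO gave the 50%-degradation concentration; Dmax taken as the luminescence range from highest to lowest concentration.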

[2] = biological target: His tagged CRBN+DDB−DLS7+CXU4 (Homo sapiens (Human), UniProt Q96SW2); assay: IC50 Measurements for Binding to CRBN/DDBI (HTRF); details: Cy5-labeled Thalidomide probe, one hour incubation
[3] = biological target: T1, IKZF2 (Homo sapiens (Human), UniProt Q96SW2+Q9UKS7); assay: IKZF2 HiBit Assay (HEK293T Flp-in-HiBiT cells); format: cell-based; details: for DC50: read-out: IKZF2 HiBit degradation DC50; for Dmax: HEK-293T, read-out: IKZF2 HiBit degradation Dmax
Outline: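 HEK293T Flp-in cells carrying CRISPR-inserted N-terminal HiBiT tag at the endogenous IKZF2 locus were treated with an 11-point, 3-fold dilution from 1 mM (stock) for 6 hrs; final DMSO 0.1%. HiBiT luminescence was detected after lysis with LgBiT/substrate reagent. DMSO-normalized curves gave 50% degradation concentration and Dmax.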

[4] = biological target: IKZF2 (Homo sapiens (Human), UniProt Q9UKS7); assay: IKZF2 FACS Assay (Jurkat cells); format: cell-based; details: Jurkat cells, 24 hrs; read-out: IKZF2 FACS degradation DC50
Experimental: (§1) Jurkat cells (ATCC, Cat […]) were cultured in RPMI1640+10% FBS+1% P/S. Cells were treated at desired compound concentrations (0.05 to 10 μM) and DMSO as vehicle control for 24 hrs.

[5] = biological target: T1, IKZF2; assay: IKZF2 FACS Assay (Jurkat cells); format: cell-based; details: read-out: IKZF2 FACS degradation Dmax
Experimental: as §1

[6] = HEK293T Flp-in-HiBiT-IKZF1 cells, 6 hrs
[7] = HEK293T Flp-in-HiBiT cells, 6 hrs

His tagged CRBN+DDB−DLS7+CXU4, sequence (Q96SW2 whole entry): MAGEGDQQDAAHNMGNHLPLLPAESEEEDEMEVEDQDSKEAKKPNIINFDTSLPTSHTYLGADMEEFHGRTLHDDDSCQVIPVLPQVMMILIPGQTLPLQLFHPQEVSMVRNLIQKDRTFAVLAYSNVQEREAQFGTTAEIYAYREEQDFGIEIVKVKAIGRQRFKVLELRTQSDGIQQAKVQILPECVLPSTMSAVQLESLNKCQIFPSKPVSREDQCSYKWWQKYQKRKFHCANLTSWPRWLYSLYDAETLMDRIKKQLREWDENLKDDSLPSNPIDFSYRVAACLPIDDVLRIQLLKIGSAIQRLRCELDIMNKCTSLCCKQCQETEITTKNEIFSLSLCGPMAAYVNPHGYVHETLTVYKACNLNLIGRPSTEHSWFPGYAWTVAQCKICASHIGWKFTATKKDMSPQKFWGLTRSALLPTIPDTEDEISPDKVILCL
His tagged CRBN+DDB−DLS7+CXU4, sequence (Q16531 whole entry partner): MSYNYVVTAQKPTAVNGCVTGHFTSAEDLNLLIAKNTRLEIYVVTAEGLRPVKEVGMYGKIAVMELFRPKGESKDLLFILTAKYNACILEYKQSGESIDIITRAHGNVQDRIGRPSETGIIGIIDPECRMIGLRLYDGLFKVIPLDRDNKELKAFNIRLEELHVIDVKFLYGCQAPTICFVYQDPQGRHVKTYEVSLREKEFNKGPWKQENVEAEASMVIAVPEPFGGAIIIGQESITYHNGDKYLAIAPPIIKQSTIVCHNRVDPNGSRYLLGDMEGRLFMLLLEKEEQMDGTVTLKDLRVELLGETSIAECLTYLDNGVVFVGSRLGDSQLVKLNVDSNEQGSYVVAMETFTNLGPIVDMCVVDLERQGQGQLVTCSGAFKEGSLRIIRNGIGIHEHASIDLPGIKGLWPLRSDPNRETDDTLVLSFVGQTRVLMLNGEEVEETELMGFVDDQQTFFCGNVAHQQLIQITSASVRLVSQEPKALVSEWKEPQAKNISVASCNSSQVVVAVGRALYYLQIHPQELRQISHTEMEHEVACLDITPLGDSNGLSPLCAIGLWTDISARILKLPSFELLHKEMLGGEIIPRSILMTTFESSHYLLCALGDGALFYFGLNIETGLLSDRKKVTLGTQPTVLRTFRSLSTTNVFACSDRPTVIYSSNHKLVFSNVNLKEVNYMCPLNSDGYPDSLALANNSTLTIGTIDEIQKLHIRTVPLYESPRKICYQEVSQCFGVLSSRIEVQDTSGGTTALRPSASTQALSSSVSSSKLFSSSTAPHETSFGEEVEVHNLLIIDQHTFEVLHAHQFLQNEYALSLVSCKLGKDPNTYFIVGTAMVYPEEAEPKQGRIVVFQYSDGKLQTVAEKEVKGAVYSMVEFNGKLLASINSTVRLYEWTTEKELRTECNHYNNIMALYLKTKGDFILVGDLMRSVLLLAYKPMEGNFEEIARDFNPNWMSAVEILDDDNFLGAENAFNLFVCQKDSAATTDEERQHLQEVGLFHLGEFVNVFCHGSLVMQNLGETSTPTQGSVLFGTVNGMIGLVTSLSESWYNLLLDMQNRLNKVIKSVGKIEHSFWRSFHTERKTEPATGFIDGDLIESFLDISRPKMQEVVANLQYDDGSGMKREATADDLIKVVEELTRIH
IKZF2 (Homo sapiens (Human), UniProt Q9UKS7), sequence (Q9UKS7 whole entry): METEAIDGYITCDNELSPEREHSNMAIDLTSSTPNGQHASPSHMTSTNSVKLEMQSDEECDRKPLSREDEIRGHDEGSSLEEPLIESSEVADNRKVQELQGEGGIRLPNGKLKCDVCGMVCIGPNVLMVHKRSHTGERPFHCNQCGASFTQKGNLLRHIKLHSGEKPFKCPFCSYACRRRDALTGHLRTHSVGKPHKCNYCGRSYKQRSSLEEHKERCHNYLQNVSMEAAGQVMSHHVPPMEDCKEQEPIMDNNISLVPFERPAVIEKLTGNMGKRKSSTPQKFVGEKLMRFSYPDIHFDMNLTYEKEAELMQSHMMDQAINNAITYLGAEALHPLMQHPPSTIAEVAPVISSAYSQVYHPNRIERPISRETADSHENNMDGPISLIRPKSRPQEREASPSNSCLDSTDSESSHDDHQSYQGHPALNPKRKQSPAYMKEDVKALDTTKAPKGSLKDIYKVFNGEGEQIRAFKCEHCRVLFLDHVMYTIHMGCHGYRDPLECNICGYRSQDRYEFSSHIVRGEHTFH
IKZF2 (Homo sapiens (Human), UniProt Q9UKS7), sequence (Q96SW2 whole entry, further chain): as the sequence (Q96SW2 whole entry) above
IKZF2 (Homo sapiens (Human), UniProt Q9UKS7), sequence (Q16531 whole entry partner): as the sequence (Q16531 whole entry partner) above
T1 sequence (Q9UKS7 whole entry): as the sequence (Q9UKS7 whole entry) above
T1 sequence (Q96SW2 whole entry): as the sequence (Q96SW2 whole entry) above
T1 sequence (Q16531 whole entry partner): as the sequence (Q16531 whole entry partner) above
IKZF1, sequence (Q13422 whole entry): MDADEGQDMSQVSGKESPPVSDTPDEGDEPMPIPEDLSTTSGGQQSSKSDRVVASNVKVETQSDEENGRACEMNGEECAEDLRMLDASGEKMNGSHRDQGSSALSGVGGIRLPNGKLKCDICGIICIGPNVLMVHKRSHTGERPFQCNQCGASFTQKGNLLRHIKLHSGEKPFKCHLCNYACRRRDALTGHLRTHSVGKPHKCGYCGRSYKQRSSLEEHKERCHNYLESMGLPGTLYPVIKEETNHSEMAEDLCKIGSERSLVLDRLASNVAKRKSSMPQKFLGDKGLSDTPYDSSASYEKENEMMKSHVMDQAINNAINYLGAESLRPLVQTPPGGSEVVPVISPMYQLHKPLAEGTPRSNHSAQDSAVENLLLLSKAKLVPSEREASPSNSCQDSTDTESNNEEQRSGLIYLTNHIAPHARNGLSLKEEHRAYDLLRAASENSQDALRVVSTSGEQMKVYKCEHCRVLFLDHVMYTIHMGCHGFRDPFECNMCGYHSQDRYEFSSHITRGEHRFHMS
IKZF1, sequence (Q96SW2 whole entry): as the sequence (Q96SW2 whole entry) above
IKZF1, sequence (Q16531 whole entry partner): as the sequence (Q16531 whole entry partner) above

Compound	DC50 [1, 6] [nM]	Dmax [1] [%]	IC50 [2] [nM]	DC50 [3, 7] [nM]	Dmax [3] [%]	DC50 [4] [nM]	Dmax ([5]; Jurkat) [%]	Dmax [1, 6] [%]	Dmax [3, 7] [%]	Dmax ([5]; Jurkat cells, 24 hrs) [%]
Cn1cc(-c2cccc(CN3CCC4(CC3)COc3c4ccc4c3CN([C@@H]3CCC(=O)NC3=O)C4=O)c2)cn1 [Compound B14, (R)-3-(1′-(3-(1-methyl-1H-pyrazol-4-yl)benzyl)-6-oxo-6,8-dihydro-2H,7H-spiro[furo[2,3-e]isoindole-3,4′-piperidin]-7-yl)piperidine-2,6-dione]	> 1000	< 20	1000 to 5000	1 to 10	> 80	> 10	40 to 60			
O=C1CC[C@H](N2Cc3c(ccc4c3OCC43CCN(Cc4cccc(-c5cnn(C6COC6)c5)c4)CC3(F)F)C2=O)C(=O)N1 (stereo partly drawn) [Compound B32, (3S)-3-(3′,3′-difluoro-1′-(3-(1-(oxetan-3-yl)-1H-pyrazol-4-yl)benzyl)-6-oxo-6,8-dihydro-2H,7H-spiro[furo[2,3-e]isoindole-3,4′-piperidin]-7-yl)piperidine-2,6-dione]	> 1000		100 to 500	< 1		< 10		< 20	60 to 80	40 to 60
O=C1CC[C@H](N2Cc3c(ccc4c3OCC43CCN(Cc4cnn(CC5CCOCC5)c4)CC3(F)F)C2=O)C(=O)N1 (stereo partly drawn) [Compound B46, (3S)-3-(3′,3′-difluoro-6-oxo-1′-((1-((tetrahydro-2H-pyran-4-yl)methyl)-1H-pyrazol-4-yl)methyl)-6,8-dihydro-2H,7H-spiro[furo[2,3-e]isoindole-3,4′-piperidin]-7-yl)piperidine-2,6-dione]	> 1000			1 to 10		< 10		< 20	60 to 80	40 to 60
Cn1cc(-c2cccc(CN3CC[C@]4(COc5c4ccc4c5CN([C@H]5CCC(=O)NC5=O)C4=O)C(F)(F)C3)c2)cn1 [Compound B51, (S)-3-((S)-3′,3′-difluoro-1′-(3-(1-methyl-1H-pyrazol-4-yl)benzyl)-6-oxo-6,8-dihydro-2H,7H-spiro[furo[2,3-e]isoindole-3,4′-piperidin]-7-yl) piperidine-2,6-dione]	> 1000		< 100	< 1		< 10		< 20	60 to 80	> 60
O=C1CC[C@H](N2Cc3c(ccc4c3OC[C@]43CCN(Cc4cccc(-c5cnn(C6COC6)c5)c4)CC3(F)F)C2=O)C(=O)N1 [Compound B53, (S)-3-((S)-3′,3′-difluoro-1′-(3-(1-(oxetan-3-yl)-1H-pyrazol-4-yl)benzyl)-6-oxo-6,8-dihydro-2H,7H-spiro[furo[2,3-e]isoindole-3,4′-piperidin]-7-yl)piperidine-2,6-dione]	> 1000			< 1		< 10		< 20	> 80	40 to 60
Cn1cc(-c2cccc(CN3CCC4(CC3)COc3c5c(cc(F)c34)C(=O)N([C@H]3CCC(=O)NC3=O)C5)c2)cn1 [Compound B55, (S)-3-(4-fluoro-1′-(3-(1-methyl-1H-pyrazol-4-yl)benzyl)-6-oxo-6,8-dihydro-2H,7H-spiro[furo[2,3-e]isoindole-3,4′-piperidin]-7-yl)piperidine-2,6-dione]	> 1000			< 1		< 10		< 20	> 80	40 to 60
